# Laboratory results published in patent US9034826B2, “Use of epidermal growth factor for the morphofunctional restoration of peripheral nerves in diabetic neuropathy” (Centro de Ingenieria Genetica y Biotecnologia, priority 2006, dated 2015).
# Experiments:
# Format in all cases: in vivo, Wistar rats
# [1] = system: diabetic rats; assay: Nociceptive threshold (NCT) pain test, prevention of diabetic neuropathy (Example 1); conditions: 75 μg EGF/ml
# Experimental: (§1) Male Wistar, with 200-250 grams of body weight, received a subcutaneous injection of streptozotocin, at 75 mg/kg in sodium citrate buffer. Water was then replaced by a 10% sucrose solution during the next 24 h, to prevent deaths caused by hypoglycemia. Glucose levels in blood were monitored every morning during the next 72 hours after the injection. Only animals with sustained glucose values above 15 mmol/L were used. Rats were housing at 4 per cage and fed in the conventional way. A concurrent group of other 80 rats received citrate buffer without streptozotocin and was handled in a similar fashion to the diabetic group.
# (§2) All treatments were conducted during 8 weeks, starting one week after streptozotocin injection. The composition used contained 75 μg of human recombinant EGF/ml. Several types of observations were conducted in the animals under study:
# The pain test, by application of an increasing pressure in the tail, was carried out at days 28 and 56 after initiation of the treatment, using 10 animals per each one of the experimental groups. NCT, expressed in grams, was determined by using an Ugo Basile type analgesimeter to apply a gradually increasing pressure to the tail of the animals until they developed a withdrawal reflex. In human diabetic neuropathy the nociceptive threshold is reduced.
# [2] = system: diabetic rats; assay: Motor conduction velocity, sciatic-tibial route, prevention study (Example 1); conditions: 75 μg EGF/ml, day 60
# Experimental: as §1, with “group. The average value for glycemia during the 72 hours in this group was 5.87 mmol/L.” for “group.”
# as §2
# Fifteen animals were used in each experimental group. In diabetic neuropathy conduction velocity is generally diminished.
# Distal supra-maximal stimulation in the sciatic-tibial route using bipolar electrodes is was used to study motor conduction. Determination of the conduction velocity in the sensory routes was carried out by applying a stimulus at a proximal point in the tail and measure it 3 cm away.
# [3] = system: sciatic nerve; assay: Histomorphometric study on fragments of the sciatic nerve, prevention study (Example 1); conditions: day 70 after induction of diabetes; for Number of blood vessels: 10 microscopic fields
# Experimental: as §1, with “group. The average value for glycemia during the 72 hours in this group was 5.87 mmol/L.” for “group.”
# as §2
# Once the treatment was concluded, animals were sacrificed at day 70 after induction of diabetes, 10 days after the last dose was given, and the analysis described above is was completed. Animals were sacrificed by an overdose of anesthesia and perfused with saline buffer pH 7.4. A total of ten animals per experimental group were included for histomorphometric studies, and an equivalent number of rats were used for biochemical determinations. In both systems the sciatic nerves from both limbs were dissected; fragments were kept at −70° C. until processed. The samples taken for histological and/or histomorphometric studies were stained with hematoxilin/eosin and toluidine blue. At least five fragments of the same nerve were quantitatively studied using MADIP program. The fragments were included in blocks of celloidine and gelatin, and those blocks were horizontal and transversally sliced. The following histological indicators were evaluated: • Total number of blood vessels (in epineural/perineural) in 10 microscopic fields using 10× as constant magnification in longitudinal cuts of the nerve. • Percentage of demyelinated fibers. Evaluated by averaging the values per microscopic field (×20, at least five fields). • Percentage of myelin or non-myelin fibers with lesions (dilated or distorted) per microscopic field (×20, at least five fields). • Percentage of endoneurial collagenization (moderated: 25 to 50%; severe: more than 50% of the endoneurial area in transversal slices, and at least three different sections.
# [4] = system: right sciatic nerve; assay: Laser Doppler Perfusion Imaging of blood perfusion of a peripheral nerve, reversion study (Example 2); conditions: established diabetic neuropathy, 100 μg EGF in 1 ml i.p. 3 days a week for one month
# From the text: The right sciatic nerve of rats was used as a model. Ten animals were included for each one of the experimental groups. A similar number of non diabetic rats were used to calculate the reference values. A Laser Doppler Perfusion Imaging (LDPI) system was used. Data of perfusion in peripheral tissues to the nerve were programmed as zero values. Control animals received saline during two months before the measurement. All determinations were done under the same conditions of anesthesia and environmental conditions. They are reflected in Table 5. The aim of this study was to evaluate the neurorestoration effect of the pharmaceutical composition. Male Wistar rats between 200-250 grams of body is weight received a subcutaneous injection of streptozotocin at 75 mg/kg in sodium citrate buffer, and were allowed to evolve until 120 days after disease induction. All rats used in this experiment had shown sustained glucose levels above 15 mmol/L. Animals were handled and fed as previously described. A concurrent control group was set, where animals received saline instead of streptozotocin. […] After this period an electrophysiological characterization of all rats were done and animals were split in two random treatment groups: Group II. Animals received the pharmaceutical composition with 100 μg of EGF in 1 ml, 3 days a week, by intraperitoneal route. […]
# [5] = Treatment group 1 (once weekly i.p., 8 weeks)
# [6] = Treatment group 3 (three times a week i.p., 8 weeks)
substance,measurement,setting,value
"EGF containing pharmaceutical composition: Composition with human recombinant EGF: 75 μg/ml in Example 1, 100 μg in 1 ml in Example 2, given intraperitoneally",NCT,"[1]; 1 ml i.p. once weekly (Treatment group 1), day 28",125 ± 18 grams
same,NCT,"[1]; 1 ml i.p. three times a week (Treatment group 3), day 28",123 ± 16 grams
same,NCT,"[1]; 1 ml i.p. three times a week (Treatment group 3), day 56",121 ± 22 grams
same,MCV (motor conduction velocity),[2]; 1 ml i.p. once weekly (Treatment group 1),45 ± 13 m/s
same,MCV (motor conduction velocity),[2]; 1 ml i.p. three times a week (Treatment group 3),56 ± 11 m/s
same,Number of blood vessels,[3]; [5],111.33 ± 14.5
same,% of collagenized area,[3]; [5],42.69 ± 14.71%
same,% of demyelinated fibers,[3]; [5],51.2 ± 17.94%
same,% of fibers with lesions,[3]; [5],60.12 ± 11%
same,Number of blood vessels,[3]; [6],158.6 ± 26.12
same,% of collagenized area,[3]; [6],13.45 ± 11.82%
same,% of demyelinated fibers,[3]; [6],35.56 ± 12.18%
same,% of fibers with lesions,[3]; [6],41.38 ± 10.26%
same,Laser Doppler perfusion of the sciatic nerve,[4],934 ± 60.18 LDPI Units
